Numbers after ± are expanded uncertainties.
Conditions: Liquid, Ebulliometric method (Recirculating still)

Row | SMILES | vapor or sublimation pressure (273.15 K) [kPa] | vapor or sublimation pressure (283.15 K) [kPa] | vapor or sublimation pressure (293.15 K) [kPa] | vapor or sublimation pressure (303.15 K) [kPa] | vapor or sublimation pressure (313.15 K) [kPa] | vapor or sublimation pressure (323.15 K) [kPa]
1 | FC(C(F)(F)F)C(F)(F)F [1,1,1,2,3,3,3-heptafluoropropane] | 194 ± 2 | 280 ± 2 | 389 ± 3 | 527 ± 3 | 704 ± 3 | 920 ± 4
2 | CCCC [butane] | 104 ± 2 | 150 ± 2 | 208 ± 2 | 284 ± 2 | 378 ± 2 | 494 ± 3

From the NIST ThermoML archive (doi:10.1021/je7004837)
